# Results reported in ChEMBL document CHEMBL1201862, “PubChem BioAssay data set” (2004).
# Active and inactive are the calls of the source.
# Tests used:
# [1] = target: Acyl-homoserine lactone acylase PvdQ (Pseudomonas aeruginosa (strain LESB58), UniProt Q9I194); experiment: P. aeruginosa PvdQ acylase inhibitors, dose response, biochemical, fluorescence, plate reader and imaging, cherry-picks (AID 493231)
# [2] = target: Lysosomal acid glucosylceramidase (Homo sapiens, UniProt P04062); experiment: Dose response cell-based high throughput screening assay to identify enhancers of beta-glucosidase activity. [Related pubchem assays: 784 ]; assay type: functional
# Sequence of Lysosomal acid glucosylceramidase (P04062 whole entry, the tested form may be a part): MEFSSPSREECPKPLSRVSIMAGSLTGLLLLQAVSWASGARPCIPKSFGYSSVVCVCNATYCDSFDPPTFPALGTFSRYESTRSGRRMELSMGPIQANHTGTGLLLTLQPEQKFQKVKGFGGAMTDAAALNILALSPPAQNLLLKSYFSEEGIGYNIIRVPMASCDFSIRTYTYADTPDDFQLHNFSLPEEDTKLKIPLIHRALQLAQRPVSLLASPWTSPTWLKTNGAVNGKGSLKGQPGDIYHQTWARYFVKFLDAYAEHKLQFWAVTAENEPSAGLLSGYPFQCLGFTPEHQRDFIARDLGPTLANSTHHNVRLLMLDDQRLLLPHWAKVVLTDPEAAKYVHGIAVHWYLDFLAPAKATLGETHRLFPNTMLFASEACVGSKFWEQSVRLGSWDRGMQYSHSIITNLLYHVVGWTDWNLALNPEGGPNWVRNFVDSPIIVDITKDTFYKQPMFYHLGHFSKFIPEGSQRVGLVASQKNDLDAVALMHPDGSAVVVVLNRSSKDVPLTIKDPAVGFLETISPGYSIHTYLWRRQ
# [3] = target: Peroxisome proliferator-activated receptor gamma (Homo sapiens, UniProt P37231); experiment: PPARg ligand-binding domain binders, dose response, PPARg partial agonist project, biochemical, TR-FRET, LanthaScreen (AID 504446)
# Sequence of Peroxisome proliferator-activated receptor gamma (P37231 whole entry, the tested form may be a part): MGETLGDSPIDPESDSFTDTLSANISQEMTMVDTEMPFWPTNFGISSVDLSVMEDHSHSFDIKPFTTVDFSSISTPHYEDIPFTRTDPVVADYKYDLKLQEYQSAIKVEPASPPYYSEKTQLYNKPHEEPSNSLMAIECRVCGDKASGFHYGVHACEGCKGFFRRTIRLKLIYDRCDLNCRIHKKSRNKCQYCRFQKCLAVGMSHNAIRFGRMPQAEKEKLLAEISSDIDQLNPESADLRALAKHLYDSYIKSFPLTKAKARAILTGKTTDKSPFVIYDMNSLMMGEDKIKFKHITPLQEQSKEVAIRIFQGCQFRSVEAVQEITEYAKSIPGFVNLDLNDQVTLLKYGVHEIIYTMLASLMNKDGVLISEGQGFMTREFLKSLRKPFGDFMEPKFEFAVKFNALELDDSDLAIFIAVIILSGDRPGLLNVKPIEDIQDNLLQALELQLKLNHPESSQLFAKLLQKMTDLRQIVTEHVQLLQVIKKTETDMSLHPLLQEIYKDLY
# [4] = target: T1, Eukaryotic translation initiation factor 2-alpha kinase 3 (Homo sapiens, UniProt Q9NZJ5); experiment: Dose response cell-based high-throughput screening assay to measure PERK inhibition. [Related pubchem assays: 1416 ]; assay type: functional
# T1 sequence (Q9NZJ5 whole entry): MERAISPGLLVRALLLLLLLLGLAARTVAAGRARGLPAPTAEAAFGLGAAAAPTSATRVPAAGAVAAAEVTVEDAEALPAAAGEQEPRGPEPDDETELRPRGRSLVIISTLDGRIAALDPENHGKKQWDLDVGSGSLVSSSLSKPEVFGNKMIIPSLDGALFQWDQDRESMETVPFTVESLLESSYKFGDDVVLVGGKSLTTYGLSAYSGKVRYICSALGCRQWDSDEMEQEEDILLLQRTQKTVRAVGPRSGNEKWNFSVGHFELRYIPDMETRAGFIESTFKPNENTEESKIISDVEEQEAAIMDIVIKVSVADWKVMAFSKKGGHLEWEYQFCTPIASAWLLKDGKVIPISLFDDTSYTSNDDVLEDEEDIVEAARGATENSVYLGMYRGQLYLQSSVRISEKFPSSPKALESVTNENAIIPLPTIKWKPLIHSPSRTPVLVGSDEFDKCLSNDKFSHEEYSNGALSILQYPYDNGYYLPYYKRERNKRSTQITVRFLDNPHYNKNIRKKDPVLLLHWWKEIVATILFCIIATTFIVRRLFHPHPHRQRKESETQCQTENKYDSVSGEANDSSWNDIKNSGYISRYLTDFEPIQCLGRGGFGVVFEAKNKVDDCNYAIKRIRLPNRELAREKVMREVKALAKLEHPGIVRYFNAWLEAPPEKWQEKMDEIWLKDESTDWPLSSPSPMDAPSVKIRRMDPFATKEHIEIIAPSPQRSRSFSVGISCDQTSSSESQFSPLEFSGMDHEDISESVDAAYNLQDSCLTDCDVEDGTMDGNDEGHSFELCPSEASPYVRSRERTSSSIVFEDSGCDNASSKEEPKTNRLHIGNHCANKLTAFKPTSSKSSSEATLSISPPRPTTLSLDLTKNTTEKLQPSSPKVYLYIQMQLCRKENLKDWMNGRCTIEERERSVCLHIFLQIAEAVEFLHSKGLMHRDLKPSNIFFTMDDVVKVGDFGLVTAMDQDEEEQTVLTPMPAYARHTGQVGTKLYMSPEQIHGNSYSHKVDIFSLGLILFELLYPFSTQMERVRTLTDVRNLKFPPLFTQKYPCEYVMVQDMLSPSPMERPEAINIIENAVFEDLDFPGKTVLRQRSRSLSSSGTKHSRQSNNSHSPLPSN
# [5] = target: T1, Eukaryotic translation initiation factor 2-alpha kinase 3; experiment: Counterscreen assay for PERK inhibitors: Dose response cell-based high throughput screening assay to measure inhibition of PERK at 6 hours. [Related pubchem assays: 1522, 1416 ]; assay type: functional
# Sequence of Acyl-homoserine lactone acylase PvdQ (Q9I194 24-193 limits assumed): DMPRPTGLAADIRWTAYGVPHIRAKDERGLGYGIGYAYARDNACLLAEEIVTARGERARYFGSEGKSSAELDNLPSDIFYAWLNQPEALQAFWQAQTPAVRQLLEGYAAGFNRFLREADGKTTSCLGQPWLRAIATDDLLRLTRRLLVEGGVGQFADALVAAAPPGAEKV
# Sequence of Acyl-homoserine lactone acylase PvdQ (Q9I194 217-762 limits assumed): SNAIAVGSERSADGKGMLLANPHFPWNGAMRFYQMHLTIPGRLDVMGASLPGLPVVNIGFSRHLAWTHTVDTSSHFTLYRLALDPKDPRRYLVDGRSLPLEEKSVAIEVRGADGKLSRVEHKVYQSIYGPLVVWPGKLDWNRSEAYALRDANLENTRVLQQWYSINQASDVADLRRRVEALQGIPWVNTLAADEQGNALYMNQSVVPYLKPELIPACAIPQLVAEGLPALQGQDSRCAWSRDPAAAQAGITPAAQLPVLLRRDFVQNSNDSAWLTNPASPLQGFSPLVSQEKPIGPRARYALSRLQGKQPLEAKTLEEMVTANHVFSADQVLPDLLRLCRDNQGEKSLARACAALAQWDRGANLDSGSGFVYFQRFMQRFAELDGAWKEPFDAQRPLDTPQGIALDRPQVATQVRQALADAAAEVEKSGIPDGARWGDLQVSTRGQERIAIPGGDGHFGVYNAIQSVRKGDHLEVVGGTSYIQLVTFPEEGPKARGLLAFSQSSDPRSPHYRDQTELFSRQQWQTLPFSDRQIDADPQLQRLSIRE
structure (smiles),measurement,setting,value
O=[N+]([O-])c1ccc(N2CCSCC2)cc1,AC50,[1],> 100 µM (inactive)
O=S(=O)(NCc1csc(-c2cccnc2)n1)c1ccc2c(c1)OCCO2,EC50,[2],> 50 µM (not active)
O=C(O)CCN1C(=O)/C(=C/c2ccccc2Cl)SC1=S,IC50,[3],2 µM (active)
CCCCOC(=O)C1C2C=C[C@]3(CN(CCCOC)C(=O)[C@H]13)O2 (stereo not given in full),EC50,[4],> 55.7 µM (not active)
same,EC50,[5],> 55.7 µM (not active)
